Results from patent publication US20260234180A1, “AMINO ACID DERIVATIVE, PREPARATION METHOD THEREFOR, AND PHARMACEUTICAL COMPOSITION FOR TREATING HEPATITIS, COMPRISING SAME” (priority 2021, published 2026).

Target: T1, NTCP (Na+ taurocholate cotransporting peptide), HepG2-hNTCP-C4 cell line (Homo sapiens, UniProt Q14973)
T1 construct: expressed in transfected cells; host or cells: HepG2-hNTCP-C4 (HepG2 cells expressing human NTCP)
T1 sequence (Q14973 1-349): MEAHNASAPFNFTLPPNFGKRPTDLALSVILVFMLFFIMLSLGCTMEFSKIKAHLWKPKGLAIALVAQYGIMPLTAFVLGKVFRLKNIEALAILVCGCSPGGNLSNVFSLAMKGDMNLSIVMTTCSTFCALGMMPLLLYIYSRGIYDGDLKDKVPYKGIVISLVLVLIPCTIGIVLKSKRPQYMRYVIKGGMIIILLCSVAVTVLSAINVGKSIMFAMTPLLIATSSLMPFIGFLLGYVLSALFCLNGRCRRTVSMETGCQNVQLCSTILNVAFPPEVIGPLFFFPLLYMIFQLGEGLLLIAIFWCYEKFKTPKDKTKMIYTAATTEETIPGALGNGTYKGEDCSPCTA
Assay: Inhibition of binding between FITC-labelled PreS1 and NTCP expressing cell line, flow cytometry
Details: for effect of inhibiting the binding between PreS1 and NTCP expressing cell lines by treatment concentration: 2 μM, 10 μM, 50 μM; for difference in degree of competitive inhibition versus Comparative Example 2 (UDCA) / difference in degree of competitive inhibition versus the parent bile acid Comparative Example: compared to the HBV-induced group (PreS1-FITC) solely treated with PreS1; for relative fluorescence intensity in comparison with the parent bile acid Comparative Example: vs Comparative Example 2 (UDCA), 5 (DCA) or 6 (CDCA), method as Experimental Example 1-1; for difference in degree of competitive inhibition versus the parent bile acid Comparative Example: vs Comparative Example 5 or 6; for relative fluorescence intensity compared to Comparative Example 1 (LCA): 20 nM PreS1, 4° C., 2 hours, lower = more inhibited binding
Protocol: HepG2-hNTCP-C4 cell line, a cell line expressing NTCP, was seeded in a 6 well plate at a density of 2×10^5/well and incubated at 4° C. for 30 minutes when the confluency reached 80% after overnight incubation for 2 days. Thereafter, 20 nM PreS1 (Myr-GTNL […]-Lys(FITC) (SEQ ID NO: 1)) and the compounds in Example 1, Examples 38 to 56 or the compound in Comparative Example 1 were treated by diluting in culture media at 4° C. at a concentration of 50 µM respectively, and the media was suctioned after 2 hours, followed by washing 3 times with 4° C. PBS. In order to take the cells off from the plate, 500 μl of 0.5 mM EDTA PBS solution was treated, and then incubation was performed at 37° C. for 15 minutes to check whether the cells fell off through an optical microscope. After taking off the cells by pipetting, the cells were collected in a 1.5 ml tube and centrifuged (4000 rpm, 4° C., 3 min). After suctioning the supernatant, the pellet was washed 3 times with 4° C. PBS, and then green fluorescence was measured via flow cytometry. In this case, taurocholic acid (TCA), a compound known as a substrate of NTCP to reduce the entry of HBV or HDV, was used as a positive control group.
In the graph at the top of FIG. 1, black (1) and red (2) indicate a negative control group with no treatment and an HBV-induced group (HBV preS1) solely treated with PreS1, respectively. Blue (HBV preS1+HBV entry inhibitor) (3) is the fluorescence value for each of Examples or Comparative Examples, evaluated that the closer to the negative control group, the more inhibited the binding between PreS1 and the NTCP cell line.
The experimental method was the same as in the Experimental Example 1-1, and 20 nM PreS1 and each compound were treated at 4 concentrations (0.2 μM, 2 μM, 10 μM, 50 μM).
With an expectation that there is a structure-activity relationship among compounds composed of bile acid and amino acids, for each of bile acids in Comparative Example 1 (lithocholic acid, LCA), Comparative Example 2 (ursodeoxycholic acid, UDCA), Comparative Example 3 (cholic acid, CA), Comparative Example 4 (hyodeoxycholic acid, HDCA), Comparative Example 5 (deoxycholic acid, DCA), and Comparative Example 6 (chenodeoxycholic acid, CDCA), an evaluation experiment was conducted on an ability to inhibit the binding between PreS1 and NTCP expressing cell lines, and also for Examples 1 (LCA-Ile) and Example 44 (LCA-Val) as well as the compounds in Example 2 (UDCA-Ile), Example 3 (UDCA-Val), Example 6 (CA-Ile), Example 7 (CA-Val), Example 8 (HDCA-Ile), Example 9 (HDCA-Val), Example 10 (DCA-Ile), Example 11 (DCA-Val), Example 14 (CDCA-Ile), and Example 15 (CDCA-Val) in which bile acid parts (lithocholic acid) of Example 1 (LCA-Ile) and Example 44 (LCA-Val) were substituted with other types of bile acids in Comparative Examples 2 to 6, an evaluation experiment was conducted on an ability to inhibit the binding between PreS1 and NTCP expressing cell lines. The experimental method was the same as in the Experimental Example 1-1, and 18 compounds in the Comparative Examples 1 to 6, Examples 1 to 3, Examples 6 to 11, Examples 14 to 15, and Example 44 were treated at a concentration of 50 µM along with 20 nM PreS1.
In FIG. 9, an evaluation experiment was conducted to check a degree of inhibiting the binding between PreS1 and NTCP expressing cell lines for compounds in Examples 4 to 5, Examples 12 to 13, Examples 16 to 17, and Comparative Examples 2 (ursodeoxycholic acid, UDCA), Comparative Examples 5 (deoxycholic acid, DCA), and Comparative Examples 6 (chenodeoxycholic acid, CDCA) according to the present disclosure. The experimental method was the same as the Experimental Example 1-1.
In the Experimental Examples 1-4, it was determined whether there is additionally concentration dependence for Example 4 (UDCA-Trp), a compound with good inhibitory ability. […]

Row | Compound | relative fluorescence intensity in comparison with the parent bile acid Comparative Example | relative fluorescence intensity compared to Comparative Example 1 (LCA) (compound 50 µM) | other results
1 | C[C@H](CCC(=O)N[C@@H](Cc1c[nH]c2ccccc12)C(=O)O)[C@H]1CC[C@H]2[C@@H]3[C@@H](O)C[C@@H]4C[C@H](O)CC[C@]4(C)[C@H]3CC[C@]12C [Example 4, (S)-2-((R)-4-((3R,5S,7S,8R,9S,10S,13R,14S,17R)-3,7-dihydroxy-10,13-dimethyl-hexadecahydro-1H-cyclopenta[a]phenanthren-17-yl)pentanamido)-3-(1H-indol-3-yl)propanoic acid] | low |  | effect of inhibiting the binding between PreS1 and NTCP expressing cell lines by treatment concentration (20 μM, 20 nM PreS1): concentration dependent; difference in degree of competitive inhibition versus Comparative Example 2 (UDCA): about 2 times
2 | C[C@H](CCC(=O)N[C@@H](Cc1c[nH]c2ccccc12)C(=O)O)[C@H]1CC[C@H]2[C@@H]3[C@H](O)C[C@@H]4C[C@H](O)CC[C@]4(C)[C@H]3CC[C@]12C [Example 16, (S)-2-((R)-4-((3R,5S,7R,8R,9S,10S,13R,14S,17R)-3,7-dihydroxy-10,13-dimethyl-hexadecahydro-1H-cyclopenta[a]phenanthren-17-yl)pentanamido)-3-(1H-indol-3-yl)propanoic acid] | low |  | difference in degree of competitive inhibition versus the parent bile acid Comparative Example: 17.8%
3 | C[C@H](CCC(=O)N1CCCC1C(=O)O)[C@H]1CC[C@H]2[C@@H]3CC[C@@H]4C[C@H](O)CC[C@]4(C)[C@H]3CC[C@]12C (stereo partly drawn) [Example 38, 1-((R)-4-((3R,5R,8R,9S,10S,13R,14S,17R)-3-hydroxy-10,13-dimethyl-hexadecahydro-1H-cyclopenta[a]phenanthren-17-yl)pentanoyl)pyrrolidine-2-carboxylic acid] |  | low and lower | 
4 | C[C@H](CCC(=O)N[C@@H](Cc1ccccc1)C(=O)O)[C@H]1CC[C@H]2[C@@H]3CC[C@@H]4C[C@H](O)CC[C@]4(C)[C@H]3CC[C@]12C [Example 49, (S)-2-((R)-4-((3R,5R,8R,9S,10S,13R,14S,17R)-3-hydroxy-10,13-dimethyl-hexadecahydro-1H-cyclopenta[a]phenanthren-17-yl)pentanamido)-3-phenylpropanoic acid] |  | low | 
5 | C[C@H](CCC(=O)N[C@@H](Cc1ccc(O)cc1)C(=O)O)[C@H]1CC[C@H]2[C@@H]3[C@@H](O)C[C@@H]4C[C@H](O)CC[C@]4(C)[C@H]3CC[C@]12C [Example 5, (S)-2-((R)-4-((3R,5S,7S,8R,9S,10S,13R,14S,17R)-3,7-dihydroxy-10,13-dimethyl-hexadecahydro-1H-cyclopenta[a]phenanthren-17-yl)pentanamido)-3-(4-hydroxyphenyl)propanoic acid] | low |  | difference in degree of competitive inhibition versus Comparative Example 2 (UDCA): about 2 times
6 | C[C@H](CCC(=O)N[C@@H](Cc1cnc[nH]1)C(=O)O)[C@H]1CC[C@H]2[C@@H]3CC[C@@H]4C[C@H](O)CC[C@]4(C)[C@H]3CC[C@]12C [Example 43, (S)-2-((R)-4-((3R,5R,8R,9S,10S,13R,14S,17R)-3-hydroxy-10,13-dimethyl-hexadecahydro-1H-cyclopenta[a]phenanthren-17-yl)pentanamido)-3-(1H-imidazol-5-yl)propanoic acid] |  | low | 
7 | C[C@H](O)[C@H](NC(=O)CC[C@@H](C)[C@H]1CC[C@H]2[C@@H]3CC[C@@H]4C[C@H](O)CC[C@]4(C)[C@H]3CC[C@]12C)C(=O)O [Example 39, (2S,3S)-3-hydroxy-2-((R)-4-((3R,5R,8R,9S,10S,13R,14S,17R)-3-hydroxy-10,13-dimethyl-hexadecahydro-1H-cyclopenta[a]phenanthren-17-yl)pentanamido)butanoic acid] |  | low and lower | 
8 | C[C@H](CCC(=O)N[C@@H](Cc1ccc(O)cc1)C(=O)O)[C@H]1CC[C@H]2[C@@H]3CC[C@@H]4C[C@H](O)CC[C@]4(C)[C@H]3C[C@H](O)[C@]12C [Example 13, (S)-2-((R)-4-((3R,5R,8R,9S,10S,12S,13R,14S,17R)-3,12-dihydroxy-10,13-dimethyl-hexadecahydro-1H-cyclopenta[a]phenanthren-17-yl)pentanamido)-3-(4-hydroxyphenyl)propanoic acid] | the same or lower |  | 
9 | CC(C)C[C@H](NC(=O)CC[C@@H](C)[C@H]1CC[C@H]2[C@@H]3CC[C@@H]4C[C@H](O)CC[C@]4(C)[C@H]3CC[C@]12C)C(=O)O [Example 47] |  | low and lower | 
10 | CC[C@@H](C)[C@H](NC(=O)CC[C@@H](C)[C@H]1CC[C@H]2[C@@H]3[C@H](O)C[C@@H]4C[C@H](O)CC[C@]4(C)[C@H]3CC[C@]12C)C(=O)O [Example 14, (2S,3R)-2-((R)-4-((3R,5S,7R,8R,9S,10S,13R,14S,17R)-3,7-dihydroxy-10,13-dimethyl-hexadecahydro-1H-cyclopenta[a]phenanthren-17-yl)pentanamido)-3-methylpentanoic acid] |  |  | ability to inhibit the binding between PreS1 and NTCP expressing cell lines (bile acid series) (compound 50 µM, 20 nM PreS1): relatively excellent
11 | C[C@H](CCC(=O)N[C@@H](Cc1c[nH]c2ccccc12)C(=O)O)[C@H]1CC[C@H]2[C@@H]3CC[C@@H]4C[C@H](O)CC[C@]4(C)[C@H]3C[C@H](O)[C@]12C [Example 12, (S)-2-((R)-4-((3R,5R,8R,9S,10S,12S,13R,14S,17R)-3,12-dihydroxy-10,13-dimethyl-hexadecahydro-1H-cyclopenta[a]phenanthren-17-yl)pentanamido)-3-(1H-indol-3-yl)propanoic acid] | the same or lower |  | difference in degree of competitive inhibition versus the parent bile acid Comparative Example: 11.6%
12 | C[C@H](CCC(=O)N[C@@H](Cc1c[nH]c2ccccc12)C(=O)O)[C@H]1CC[C@H]2[C@@H]3CC[C@@H]4C[C@H](O)CC[C@]4(C)[C@H]3CC[C@]12C [Example 50, (S)-2-((R)-4-((3R,5R,8R,9S,10S,13R,14S,17R)-3-hydroxy-10,13-dimethyl-hexadecahydro-1H-cyclopenta[a]phenanthren-17-yl)pentanamido)-3-(1H-indol-3-yl)propanoic acid] |  | low and lower | effect of inhibiting the binding between PreS1 and NTCP expressing cell lines by treatment concentration (0.2 μM, 20 nM PreS1): concentration dependent
